In the supplement of paper PMC10307832:

Key:
Assay in all cases: relative viability (nuclei count vs DMSO), 5 days (fraction); higher = more cells survive
RO-3306 + Luminespib = compound: C1=CC2=C(C=CC(=C2)C=C3C(=O)NC(=NCC4=CC=CS4)S3)N=C1 [RO-3306] + CCNC(=O)c1noc(-c2cc(C(C)C)c(O)cc2O)c1-c1ccc(CN2CCOCC2)cc1 [Luminespib] (partner 0.01 µM)
In short: (§1)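 After 5 days of treatment, lung cancer cells in 1536-well plates were fixed and stained in a single step (final 0.05% Triton X-100, 1% formaldehyde, 1 ug/ml Hoechst) and their nuclei counted on 4× images. Treatment had been applied by pin tool the day after seeding as one drug alone or as a fixed anchor-drug dose with five library-drug doses (not always all listed) in √10 steps. Relative viability is the nuclei count of treated wells divided by that of vehicle wells, and values are medians of duplicate plates.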

[1] = compound: O=S(=O)(c1ccccc1)N(CC(F)(F)F)c1ccc(C(O)(C(F)(F)F)C(F)(F)F)cc1 + CS(=O)(=O)CCNCc1ccc(-c2ccc3ncnc(Nc4ccc(OCc5cccc(F)c5)c(Cl)c4)c3c2)o1 [Lapatinib] (partner 2 µM)
In short: as §1

RO-3306 + Crizotinib = compound: C1=CC2=C(C=CC(=C2)C=C3C(=O)NC(=NCC4=CC=CS4)S3)N=C1 [RO-3306] + C[C@@H](Oc1cc(-c2cnn(C3CCNCC3)c2)cnc1N)c1c(Cl)ccc(F)c1Cl [Crizotinib] (partner 1 µM)
In short: as §1

RO-3306 + Decitabine = compound: C1=CC2=C(C=CC(=C2)C=C3C(=O)NC(=NCC4=CC=CS4)S3)N=C1 [RO-3306] + Nc1ncn([C@H]2C[C@H](O)[C@@H](CO)O2)c(=O)n1 [Decitabine] (partner 2 µM)
In short: as §1

Q: Which results are given for UMC-11?
A: relative viability (RO-3306 + Luminespib; first compound 0.01 µM): 0.955; relative viability (RO-3306 + Luminespib; first compound 0.03162 µM): 0.908; relative viability (RO-3306 + Luminespib; first compound 0.1 µM): 1.05; relative viability (RO-3306 + Luminespib; first compound 0.3162 µM): 1.08; relative viability (RO-3306 + Luminespib; first compound 1 µM): 1.06; relative viability ([1]; first compound 0.8 µM): 1.19; relative viability ([1]; first compound 2.53 µM): 0.966; relative viability ([1]; first compound 8 µM): 1.22; relative viability (RO-3306 + Crizotinib; first compound 0.01 µM): 0.49; relative viability (RO-3306 + Crizotinib; first compound 0.03162 µM): 0.555; relative viability (RO-3306 + Crizotinib; first compound 0.1 µM): 0.62; relative viability (RO-3306 + Crizotinib; first compound 0.3162 µM): 0.906; relative viability (RO-3306 + Crizotinib; first compound 1 µM): 0.48; relative viability (RO-3306 + Decitabine; first compound 0.01 µM): 0.569; relative viability (RO-3306 + Decitabine; first compound 0.03162 µM): 0.58; relative viability (RO-3306 + Decitabine; first compound 0.1 µM): 0.613; relative viability (RO-3306 + Decitabine; first compound 0.3162 µM): 0.607; relative viability (RO-3306 + Decitabine; first compound 1 µM): 0.583
